Tests used:
[1] = system: PBMCs of COVID-19 convalescent donors; test: Secretion of IFNγ in the presence of dexamethasone with peptivators for SARS-COV-2; assay type: cell-based, human; conditions: three SARS-CoV-2 peptides
Method: Then they were mixed with PepTivators for SARS-CoV2 (Miltenyi Biotec. PepTivator Prot_M, Ref. 130-126-702; PepTivator Prot_N, Ref. 130-126-698 & PepTivator Prot_S, Ref. 130-126-700. Final concentration of 0.6 nmol/ml) for 5 hours at 37° C.; then IFNγ production of T cells were measured as before using the Miltenyi Biotec IFNg Detection Kit, Ref: 130-054-202. In all cases there was a basal condition, without peptivators and the cells where previously incubated with mouse Anti-Human CD3 (Clone OKT3; BD Biosciences, Ref:
566685; final concentration of 2.8 μg/ml and CD28/CD49d Purified (Clone L293 L25 RUO GMP) (BD Biosciences. Ref. 347690; final concentration 5 μg/ml). Cell acquisition was performed using a Navios cytometer (Beckman Coulter), acquiring an average of 200,000 cells. The analysis was made using FlowJo 10.7.1 (FlowJoLLC). N=3, mean of the results was performed.

[2] = system: PBMCs of COVID-19 convalescent donors; test: Proliferation assay with CFSE in the presence of dexamethasone; assay type: cell-based, human; conditions: dexamethasone 10-7-10-6 M
Method: Around 2 million cells where incubated in a P24 plaque in 1 ml of supplemented medium with 1.5% v/v PHA (Phytohemagglutinin M form. Ref. 10576015), Mouse Anti-Human CD3 (Clone OKT3; BD Biosciences, Ref: 566685; final concentration of 0.05 μg/ml) and CD28/CD49d Purified (Clone L293 L25 RUO GMP) (BD Biosciences. Ref. 347690; final concentration 5 μg/ml).
The cells where incubated at 37° C. for 3 days and finally a CFSE proliferation assay (CellTrace™ CFSE Cell Proliferation Kit, Invitrogen, Ref.) was performed to determine if high doses of the drug decrease the division index of the cells. The cells were stained with CFSE and the different cell surface antibodies. Then, cell acquisition was performed using a Navios cytometer (Beckman Coulter), acquiring an average of 200,000 cells. The analysis was made using FlowJo 10.7.1 (FlowJoLLC). N=4 mean of the results was performed.

[3] = DEX 10^-7M, 72 hours (D3), listed as dexamethasone

C[C@@H]1C[C@H]2[C@@H]3CCC4=CC(=O)C=C[C@]4(C)[C@@]3(F)[C@@H](O)C[C@]2(C)[C@@]1(O)C(=O)CO [DEX, dexamethasone]
Percentage of IFNg, CD45RA+ ([1]; DEX 10^-6M, 24 hours (D1)): 0.00%
Percentage of IFNg, CD45RA+CD3+ ([1]; DEX 10^-6M, 24 hours (D1)): 0.00%
Percentage of IFNg, CD45RA+CD3+CD4+ ([1]; DEX 10^-6M, 24 hours (D1)): 0.32%
Percentage of IFNg, CD45RA+CD3+CD8+ ([1]; DEX 10^-6M, 24 hours (D1)): 0.00%
Percentage of IFNg, CD45RA− ([1]; DEX 10^-6M, 24 hours (D1)): 2.0%
Percentage of IFNg, CD45RA− CD3+ ([1]; DEX 10^-6M, 24 hours (D1)): 0.7%
Percentage of IFNg, CD45RA− CD3+CD4+ ([1]; DEX 10^-6M, 24 hours (D1)): 1.1%
Percentage of IFNg, CD45RA− CD3+CD8+ ([1]; DEX 10^-6M, 24 hours (D1)): 0.1%
Percentage of IFNg, CD45RA+ ([1]; DEX 10^-6M, 72 hours (D3)): 0.61%
Percentage of IFNg, CD45RA+CD3+ ([1]; DEX 10^-6M, 72 hours (D3)): 1.06%
Percentage of IFNg, CD45RA+CD3+CD4+ ([1]; DEX 10^-6M, 72 hours (D3)): 1.43%
Percentage of IFNg, CD45RA+CD3+CD8+ ([1]; DEX 10^-6M, 72 hours (D3)): 1.29%
Percentage of IFNg, CD45RA− ([1]; DEX 10^-6M, 72 hours (D3)): 2.68%
Percentage of IFNg, CD45RA− CD3+ ([1]; DEX 10^-6M, 72 hours (D3)): 3.27%
Percentage of IFNg, CD45RA− CD3+CD4+ ([1]; DEX 10^-6M, 72 hours (D3)): 3.04%
Percentage of IFNg, CD45RA− CD3+CD8+ ([1]; DEX 10^-6M, 72 hours (D3)): 4.50%
Percentage of IFNg, CD45RA+ ([1]; DEX 10^-7M, 24 hours (D1)): 0.27%
Percentage of IFNg, CD45RA+CD3+ ([1]; DEX 10^-7M, 24 hours (D1)): 0.40%
Percentage of IFNg, CD45RA+CD3+CD4+ ([1]; DEX 10^-7M, 24 hours (D1)): 0.11%
Percentage of IFNg, CD45RA+CD3+CD8+ ([1]; DEX 10^-7M, 24 hours (D1)): 1.77%
Percentage of IFNg, CD45RA− ([1]; DEX 10^-7M, 24 hours (D1)): 5.9%
Percentage of IFNg, CD45RA− CD3+ ([1]; DEX 10^-7M, 24 hours (D1)): 1.7%
Percentage of IFNg, CD45RA− CD3+CD4+ ([1]; DEX 10^-7M, 24 hours (D1)): 2.4%
Percentage of IFNg, CD45RA− CD3+CD8+ ([1]; DEX 10^-7M, 24 hours (D1)): 2.6%
Percentage of IFNg, CD45RA+ ([1]; DEX 10^-7M, 72 hours (D3)): 2.08%
Percentage of IFNg, CD45RA+CD3+ ([1]; DEX 10^-7M, 72 hours (D3)): 5.12%
Percentage of IFNg, CD45RA+CD3+CD4+ ([1]; DEX 10^-7M, 72 hours (D3)): 3.29%
Percentage of IFNg, CD45RA+CD3+CD8+ ([1]; DEX 10^-7M, 72 hours (D3)): 3.91%
Percentage of IFNg, CD45RA− ([1]; DEX 10^-7M, 72 hours (D3)): 7.21%
Percentage of IFNg, CD45RA− CD3+ ([1]; DEX 10^-7M, 72 hours (D3)): 8.03%
Percentage of IFNg, CD45RA− CD3+CD4+ ([1]; DEX 10^-7M, 72 hours (D3)): 7.06%
Percentage of IFNg, CD45RA− CD3+CD8+ ([1]; DEX 10^-7M, 72 hours (D3)): 8.67%
Percentage of IFNg, CD45RA− [1, 3]: 2.08%
Percentage of IFNg, CD45RA− CD3+ [1, 3]: 5.12%
Percentage of IFNg, CD45RA− CD3+CD4+ [1, 3]: 3.29%
Percentage of IFNg, CD45RA− CD3+CD8+ [1, 3]: 3.91%
Reduction of proliferation within the CD45RA− memory T cells [2]: 0-5%
